Measured values taken from PMC3142157, “Sensitive and Specific Fluorescent Probes for Functional Analysis of the Three Major Types of Mammalian ABC Transporters” (PLoS ONE, 2011).

Columns and labels:
HCT-8 cells = assay: Dye uptake flow cytometry MDR assay (MAF), HCT-8 cells; format: cell-based, human; settings: for MAF value, CsA: probe with vs without CsA; for MAF value, CsA / MAF value, Nov / MAF value, Ver: mean ± SEM; for MAF value, MK571: probe with vs without MK571, mean ± SEM; for MAF value, Nov: probe with vs without Nov; for MAF value, Ver: probe with vs without Ver
Description: (§1) Detailed protocol for the MDR assay is available in the Instruction Manual for eFluxx-ID® Green or Gold Multi-Drug Resistance Assay Kit (ENZO Life Sciences, Inc., Farmingdale, NY). […] In order to exclude dead cells in the analyses, propidium iodide (PI) or 7-actinaminomycin D (7-AAD) solution was added to the cells during the last 5 min of incubation in some experiments. Experiments were performed using a FACS Calibur benchtop flow cytometer (BD Biosciences, San Jose, CA) equipped with a blue (488 nm) laser, and the signals were registered in the FITC (530/30 filter), PE (585/42 filter) and PerCP (670 LP filter) channels. eFluxx-ID® Green dye fluorescence was measured in the FL1/FITC channel, and eFluxx-ID® Gold dye fluorescence, in the FL2/PE channel. Data analysis was performed using FlowJo 8.8.2 software (Tree Star, Inc., Ashland, OR). All of the experiments were performed at least three times. Results were expressed as mean ± S.E. Statistical comparisons were made using an unpaired two-tailed Student's t-test. […] Additionally, HCT-8 cell line reported to overexpress both MDR1 and MRP transporters, [21] was tested. HCT-8, HCT-15, HepG2, HL-60 and HL-60/MX1 cells were grown on tissue culture dishes and on the day of assay were incubated with eFluxx-ID® Green and Gold probes with and without inhibitors according to the described dye uptake protocol (Materials and Methods) and analyzed by flow cytometry.

HeLa cells = assay: Dye uptake flow cytometry MDR assay (MAF), HeLa cells; format: cell-based, human; settings: dye uptake protocol; for MAF value, Fumitremorgin C: probe with vs without fumitremorgin C; for MAF value, Probenecid: probe with vs without probenecid; for MAF value, Verapamil: probe with vs without verapamil
Description: (§2) Detailed protocol for the MDR assay is available in the Instruction Manual for eFluxx-ID® Green or Gold Multi-Drug Resistance Assay Kit (ENZO Life Sciences, Inc., Farmingdale, NY). Briefly, on the day of the assay, cells were collected, washed with PBS and incubated with or without MDR inhibitors in the presence of the eFluxx-ID® Green or Gold probes for 30 min at 37°C and analyzed immediately by flow cytometry. eFluxx-ID® Green or Gold probes are novel xanthene-based small molecule dyes developed for the detection of MDR activity in living cells. In order to exclude dead cells in the analyses, propidium iodide (PI) or 7-actinaminomycin D (7-AAD) solution was added to the cells during the last 5 min of incubation in some experiments.
(§3) To develop a minimal step assay procedure for the dye uptake protocol, three modifications of the protocol were investigated. One set of the cells was treated according to a general “no-wash” protocol (see Instruction Manual for the kit). In the second set of tubes, the reaction was stopped by rapid centrifugation (1 min) at relatively low speed (200×g). After washing with ice-cold PBS and discarding the supernatant, cells were re-suspended in 0.5 ml of ice-cold medium and kept on ice until flow cytometry analysis was performed. The third set of cells was simply spun down (1 min, 200×g) to remove the excess probe, resuspended in ice-cold medium and kept on ice until flow cytometry analysis was performed. eFluxx-ID® Green dye (ex/em 490/514 nm) fluorescence intensity was measured in the FL1/FITC (530/30 filter) channel, and eFluxx-ID® Gold dye (ex/em 530/555 nm) fluorescence intensity was monitored in the FL2/PE (585/42 filter) channel.
(§4) Experiments were performed using a FACS Calibur benchtop flow cytometer (BD Biosciences, San Jose, CA) equipped with a blue (488 nm) laser, and the signals were registered in the FITC (530/30 filter), PE (585/42 filter) and PerCP (670 LP filter) channels. eFluxx-ID® Green dye fluorescence was measured in the FL1/FITC channel, and eFluxx-ID® Gold dye fluorescence, in the FL2/PE channel. Data analysis was performed using FlowJo 8.8.2 software (Tree Star, Inc., Ashland, OR).
(§5) All of the experiments were performed at least three times. Results were expressed as mean ± S.E. Statistical comparisons were made using an unpaired two-tailed Student's t-test. A P value of <0.05 was considered significant. Flow cytometry data were analyzed by comparison of median fluorescence, by using Kolmogorov-Smirnov statistics (D-value) or by calculating MDR Activity Factor (MAF) values using the following formula: MAF = 100*((MFIinh−MFI0)/MFIinh), wherein MFIinh and MFI0 are the mean fluorescence intensity values measured in the presence and absence of inhibitor [7].

CHO K1 cells = assay: Dye uptake flow cytometry MDR assay (MAF / D-values), CHO K1 cells; format: cell-based, hamster; settings: for D-values Post Inhibitor Treatment (compared to uninhibited cells), CsA / D-values Post Inhibitor Treatment (compared to uninhibited cells), FTC / D-values Post Inhibitor Treatment (compared to uninhibited cells), MK-571 / D-values Post Inhibitor Treatment (compared to uninhibited cells), Verapamil: CHO K1; for MAF value, Fumitremorgin C / MAF value, Probenecid / MAF value, Verapamil: CHO K1 cells, dye uptake protocol; for MAF value, Fumitremorgin C: probe with vs without fumitremorgin C; for MAF value, Probenecid: probe with vs without probenecid; for MAF value, Verapamil: probe with vs without verapamil
Description: as §2, §3, §4, §5

HepG2 cells = assay: Dye uptake flow cytometry MDR assay (MAF), HepG2 cells; format: cell-based, human
Description: as §1

A549 cells = assay: Dye uptake flow cytometry MDR assay (MAF / D-values), A549 cells; format: cell-based, human; settings: dye uptake protocol; for MAF value, Fumitremorgin C: probe with vs without fumitremorgin C; for MAF value, Probenecid: probe with vs without probenecid; for MAF value, Verapamil: probe with vs without verapamil
Description: as §2, §3, §4, §5

HCT-15 cells = assay: Dye uptake flow cytometry MDR assay (MAF), HCT-15 cells; format: cell-based, human
Description: as §1

HL-60 cells = assay: Dye uptake flow cytometry MDR assay (MAF), HL-60 cells; format: cell-based, human
Description: as §1

HL-60/MX1 cells = assay: Dye uptake flow cytometry MDR assay (MAF), HL-60/MX1 cells; format: cell-based, human
Description: as §1

[1] = dual probe treatment eFluxx-ID Gold + CMFDA
[2] = triple probe treatment CMFDA + eFluxx-ID Gold + Pheophorbide A
[3] = probe with vs without CsA, mean ± SEM
[4] = probe with vs without MK571, mean ± SEM
[5] = probe with vs without Nov, mean ± SEM
[6] = probe with vs without Ver, mean ± SEM
[7] = dual probe treatment eFluxx-ID Gold + DiOC2(3)
[8] = triple probe treatment DiOC2(3) + eFluxx-ID Gold + Pheophorbide A
[9] = dual probe treatment eFluxx-ID Gold + Pheophorbide A
[10] = dual probe treatment eFluxx-ID Green + Pheophorbide A

Compound: CC(=O)Oc1ccc2c(c1)Oc1cc(OC(C)=O)ccc1C21OC(=O)c2cc(CCl)ccc21 [CMFDA, chloromethylfluorescein diacetate]
- MAF value, CsA (HCT-8 cells): 43.0±3.2
- MAF value, MK571 (HCT-8 cells): 39.2±3.6
- MAF value, Nov (HCT-8 cells): 0
- MAF value, Ver (HCT-8 cells): 21.2±3.2
- MAF value, Fumitremorgin C (HeLa cells): 11.4
- MAF value, Probenecid (HeLa cells): 9.0
- MAF value, Verapamil (HeLa cells): 7.6
- D-values Post Inhibitor Treatment (compared to uninhibited cells), CsA (CHO K1 cells; [1]): 0.49
- D-values Post Inhibitor Treatment (compared to uninhibited cells), FTC (CHO K1 cells; [1]): 0.06
- D-values Post Inhibitor Treatment (compared to uninhibited cells), MK-571 (CHO K1 cells; [1]): 0.91
- D-values Post Inhibitor Treatment (compared to uninhibited cells), Verapamil (CHO K1 cells; [1]): 0.1
- D-values Post Inhibitor Treatment (compared to uninhibited cells), CsA (CHO K1 cells; [2]): 0.47
- D-values Post Inhibitor Treatment (compared to uninhibited cells), FTC (CHO K1 cells; [2]): 0.14
- D-values Post Inhibitor Treatment (compared to uninhibited cells), MK-571 (CHO K1 cells; [2]): 0.89
- D-values Post Inhibitor Treatment (compared to uninhibited cells), Verapamil (CHO K1 cells; [2]): 0.10
- MAF value, Fumitremorgin C (CHO K1 cells): 0
- MAF value, Probenecid (CHO K1 cells): 56.9
- MAF value, Verapamil (CHO K1 cells): 34.3
- MAF value, CsA (HepG2 cells; [3]): 50.4±1.3
- MAF value, MK571 (HepG2 cells; [4]): 52.2±3.8
- MAF value, Nov (HepG2 cells; [5]): 7.0±1.7
- MAF value, Ver (HepG2 cells; [6]): 12.8±1.3
- MAF value, Fumitremorgin C (A549 cells): 20.7
- MAF value, Probenecid (A549 cells): 27.1
- MAF value, Verapamil (A549 cells): 16.6

Compound: CCN1C(=CC=Cc2oc3ccccc3[n+]2CC)Oc2ccccc21.[I-] [DiOC2(3), 3,3′-diethyloxacarbocyanine iodide]
- MAF value, CsA (HCT-8 cells): 24.7±0.9
- MAF value, MK571 (HCT-8 cells): 9.8±1.2
- MAF value, Nov (HCT-8 cells): 0
- MAF value, Ver (HCT-8 cells): 19.1±3.7
- MAF value, CsA (HCT-15 cells; [3]): 71.0±5.0
- MAF value, MK571 (HCT-15 cells; [4]): 4.3±2.2
- MAF value, Nov (HCT-15 cells; [5]): 0
- MAF value, Ver (HCT-15 cells; [6]): 69.3±4.3
- MAF value, Fumitremorgin C (HeLa cells): 0
- MAF value, Probenecid (HeLa cells): 0
- MAF value, Verapamil (HeLa cells): 0
- D-values Post Inhibitor Treatment (compared to uninhibited cells), CsA (CHO K1 cells; [7]): 0.94
- D-values Post Inhibitor Treatment (compared to uninhibited cells), FTC (CHO K1 cells; [7]): 0.16
- D-values Post Inhibitor Treatment (compared to uninhibited cells), MK-571 (CHO K1 cells; [7]): 0.13
- D-values Post Inhibitor Treatment (compared to uninhibited cells), Verapamil (CHO K1 cells; [7]): 0.96
- D-values Post Inhibitor Treatment (compared to uninhibited cells), CsA (CHO K1 cells; [8]): 0.98
- D-values Post Inhibitor Treatment (compared to uninhibited cells), FTC (CHO K1 cells; [8]): 0.11
- D-values Post Inhibitor Treatment (compared to uninhibited cells), MK-571 (CHO K1 cells; [8]): 0.13
- D-values Post Inhibitor Treatment (compared to uninhibited cells), Verapamil (CHO K1 cells; [8]): 0.98
- MAF value, Fumitremorgin C (CHO K1 cells): 0
- MAF value, Probenecid (CHO K1 cells): 2.4
- MAF value, Verapamil (CHO K1 cells): 86.6
- MAF value, Fumitremorgin C (A549 cells): 0.9
- MAF value, Probenecid (A549 cells): 1.0
- MAF value, Verapamil (A549 cells): 4.2

Compound: C=Cc1c(C)c2cc3nc(c4c5[nH]c(cc6nc(cc1[nH]2)C(C)=C6CC)c(C)c5C(=O)[C@@H]4C(=O)OC)[C@@H](CCC(=O)O)[C@@H]3C [Pheophorbide A, pheophorbide A]
- MAF value, CsA (HL-60 cells; [3]): 6.5±1.7
- MAF value, MK571 (HL-60 cells; [4]): 7.6±1.6
- MAF value, Nov (HL-60 cells; [5]): 8.5±1.4
- MAF value, Ver (HL-60 cells; [6]): 6.8±0.6
- MAF value, CsA (HL-60/MX1 cells; [3]): 22.5±3.0
- MAF value, MK571 (HL-60/MX1 cells; [4]): 10.2±3.7
- MAF value, Nov (HL-60/MX1 cells; [5]): 23.4±0.8
- MAF value, Ver (HL-60/MX1 cells; [6]): 7.6±3.8
- MAF value, Fumitremorgin C (HeLa cells): 5.8
- MAF value, Probenecid (HeLa cells): 0.5
- MAF value, Verapamil (HeLa cells): 0
- D-values Post Inhibitor Treatment (compared to uninhibited cells), CsA (CHO K1 cells; [9]): 0.25
- D-values Post Inhibitor Treatment (compared to uninhibited cells), FTC (CHO K1 cells; [9]): 0.34
- D-values Post Inhibitor Treatment (compared to uninhibited cells), MK-571 (CHO K1 cells; [9]): 0.14
- D-values Post Inhibitor Treatment (compared to uninhibited cells), Verapamil (CHO K1 cells; [9]): 0.11
- D-values Post Inhibitor Treatment (compared to uninhibited cells), CsA (CHO K1 cells; [10]): 0.25
- D-values Post Inhibitor Treatment (compared to uninhibited cells), FTC (CHO K1 cells; [10]): 0.33
- D-values Post Inhibitor Treatment (compared to uninhibited cells), MK-571 (CHO K1 cells; [10]): 0.15
- D-values Post Inhibitor Treatment (compared to uninhibited cells), Verapamil (CHO K1 cells; [10]): 0.14
- D-values Post Inhibitor Treatment (compared to uninhibited cells), CsA (CHO K1 cells; [2]): 0.20
- D-values Post Inhibitor Treatment (compared to uninhibited cells), FTC (CHO K1 cells; [2]): 0.27
- D-values Post Inhibitor Treatment (compared to uninhibited cells), MK-571 (CHO K1 cells; [2]): 0.09
- D-values Post Inhibitor Treatment (compared to uninhibited cells), Verapamil (CHO K1 cells; [2]): 0.18
- D-values Post Inhibitor Treatment (compared to uninhibited cells), CsA (CHO K1 cells; [8]): 0.4
- D-values Post Inhibitor Treatment (compared to uninhibited cells), FTC (CHO K1 cells; [8]): 0.41
- D-values Post Inhibitor Treatment (compared to uninhibited cells), MK-571 (CHO K1 cells; [8]): 0.13
- D-values Post Inhibitor Treatment (compared to uninhibited cells), Verapamil (CHO K1 cells; [8]): 0.17
- MAF value, Fumitremorgin C (CHO K1 cells): 22.3
- MAF value, Probenecid (CHO K1 cells): 8.4
- MAF value, Verapamil (CHO K1 cells): 0.7
- MAF value, Fumitremorgin C (A549 cells): 36.0
- MAF value, Probenecid (A549 cells): 14.2
- MAF value, Verapamil (A549 cells): 4.0
